{"source": "patent US20050058670A1", "about": "“Oral itraconazole composition which is not affected by ingested food and process for preparing same” (priority 2003, published 2005)", "origin": "cited, not measured here"}
{"compound": "CCC(C)n1ncn(-c2ccc(N3CCN(c4ccc(OCC5COC(Cn6cncn6)(c6ccc(Cl)cc6Cl)O5)cc4)CC3)cc2)c1=O", "note": "(stereo not shown) [Itraconazole]", "values": [{"measurement": "solubility in water", "result": "less than 1 μg/ml"}]}
